This passage reports melting point results from the Bradley open melting point set (2014).

The structures appear in SMILES notation. “And” between values parts separate entries of the source, which are not always exact repeats. Identical values can stand only once.

What is called melting point is the temperature, or range, at which the solid turns liquid. With `[2H]OC([2H])([2H])C([2H])(O[2H])C([2H])([2H])O[2H]` [(~2~H_5_)Propane-1,2,3-(~2~H_3_)triol], the melting point is 20 °C.
The value for `C=CCI` [allyl iodide] was -99 °C; that for `CCN=C=S` [ethyl isothiocyanate] was -6 °C.
Regarding `C[C@H]1CCCC[C@@H]1C` (relative stereo) [trans-1,2-dimethylcyclohexane], the melting point is -88 °C.
The value for `COC(=O)/C=C/C(=O)OC` [Dimethyl (2E)-but-2-enedioate] was 104 °C; that for `O=C(O)/C=C/c1ccccc1` [cinnamic acid] was 133 °C.
With `Oc1ccccc1-c1nc2ccccc2s1` [2-(2-hydroxyphenyl)benzothiazole] the figure was 132 °C; with `O=C(Nc1ccccc1)Nc1ccccc1` [1,3-Diphenylurea], 238 °C; with `COc1ccc2c(c1)c(CC(=O)O)c(C)n2C(=O)c1ccc(Cl)cc1` [Indomethacin], 159 °C.
Turning to `S=C=Nc1ccccc1I` [2-iodophenyl isothiocyanate], the melting point worked out at 38 °C.
Turning to `COc1ccc(C=Nc2ccccc2)cc1` [N-(4-methoxybenzylidene)aniline], the melting point is 65 °C and 62.3 °C and 63 °C.
`COc1ccc(C)cc1O` [2-methoxy-5-methylphenol]: the melting point worked out at 37 °C.
Consider `O=C(O)Cc1ccc(Oc2ccccc2)cc1` [4-phenoxyphenylacetic acid], for which the melting point came out at 76 °C.
Compound `CCCCOC(=O)c1ccc(O)cc1` [Mekkings B] displayed a melting point of 72 °C.
The value for `O=C(O)c1cc(Cl)ccc1O` [5-chlorosalicylic acid] was 174 °C; that for `c1ccc(N2CCNCC2)cc1` [1-phenylpiperazine] was 18 °C.
The compound `COc1c(Cl)cccc1Cl` [2,6-dichloroanisole] displayed a melting point of 10 °C.
Compound `CC(C)(C)c1ccc(C(=O)O)cc1` [4-tert-butylbenzoic acid] displayed a melting point of 166 °C.
For `C=C(Br)CC1(C(C)C)C(=O)NC(=O)NC1=O` [propallylonal], the melting point came out at 177 °C.
Compound `COc1ccc(C(C)=CC(=O)O)c(OC)c1` [Hepadial] gave a melting point of 149 °C.
`Nc1ccc([N+](=O)[O-])cc1[N+](=O)[O-]` [2,4-dinitroaniline] had a melting point of 178 °C.
With `COc1ccccc1N1CCN(CCCNc2cc(=O)n(C)c(=O)n2C)CC1` [urapidil] the figure was 156 °C.
`Clc1cc(Cl)c(Cl)cc1Cl` [1,2,4,5-tetrachlorobenzene]: the melting point is 139 °C (2×) and 140 °C.
Compound `CC(=O)c1ccc([N+](=O)[O-])cc1` [p-nitroacetophenone] yielded a melting point of 80 °C.
Compound `CCC1(c2ccccc2)C(=O)NC(=O)NC1=O` [phenobarbital] gave a melting point of 175 °C.
The compound `Fc1c(F)c(F)c(-c2c(F)c(F)c(F)c(F)c2F)c(F)c1F` [decafluorobiphenyl] yielded a melting point of 68 °C.
Compound `NNC(=O)NN` [carbohydrazide] yielded a melting point of 156 °C.
For `N#Cc1ccccc1O` [2-cyanophenol], the melting point worked out at 94 °C.
With `CCOC(=O)c1ccc(C#N)cc1` [ethyl_p-cyanobenzoate], the melting point worked out at 54 °C.
With `CC(C)Cc1ccc(C(C)C(=O)O)cc1` (stereo unspecified) [ibuprofen] the figure was 75 °C; with `N#Cc1ccc(I)cc1` [4-iodobenzonitrile], 126 °C; with `O=C(O)c1cccc(I)c1` [3-iodobenzoic acid], 187 °C.
`O=C(c1c(F)c(F)c(F)c(F)c1F)c1c(F)c(F)c(F)c(F)c1F` [decafluorobenzophenone] came in with a melting point of 93 °C.
In the case of `CC(Oc1cc(Cl)c(Cl)cc1Cl)C(=O)O` (stereo unspecified) [2-(2,4,5-Trichlorophenoxy)propanoic acid], the melting point was 176 °C.
The value for `CC(C)NCC(O)COc1cccc2[nH]ccc12` (stereo unspecified) [pindolol] was 170 °C; that for `COC(=O)CCCCC(=O)OC` [dimethyl adipate] was 8 °C.
